Data reported in US20210047290A1, “SPIRO COMPOUND AS INDOLEAMINE-2,3-DIOXYGENASE INHIBITOR” (SHANGHAI INSTITUTE OF ORGANIC CHEMISTRY, CHINESE ACADEMY OF …, priority 2018, published 2021).

Assays:
IDO enzyme = target: T1, IDO enzyme (Homo sapiens, UniProt P14902); test: IDO enzyme inhibitory activity test; format: biochemical; details: recombinant IDO, D-Trp substrate, reading at 321 nm for 40 min
T1 construct: made in house; host or cells: E. coli BL21 (pET28a-IDO plasmid)
Method: (1) Induced Expression and Purification Method of IDO Protein
Firstly, DO gene was amplified with PCR, and the amplified PCR product was recycled. Digestion (2 h under 37° C.), gel running and recycling were carried out on the pET28a plasmid (purchased from Shanghai Baomanbio Co., Ltd.) and IDO gel with two restriction enzymes (EcoR I and Xho I). T4 ligase was connected with the product overnight, added into DH5α competence, placed on the ice for 30 min and subjected to thermal shock at 42° C. for 90 s.
BL21 which contained pET28a-IDO plasmid was shaken vigorously at 37° C. till OD600 was 0.6-0.8, added into hemin (final concentration: 40 μM) and 0.5 mM IPTG (isopropyl-3-D-IPTG) and induced under 16° C. for 20 h; after induction, thallus were collected centrifugally at 4° C. and 6,000 rpm, washed with 50 mM PBS (pH 7.5) and collected again centrifugally.
The collected thallus were suspended again with buffer solution (50 mM PBS pH 7.5). An appropriate amount of 100×PMSF was added. The thallus were disrupted with cell disruption instrument (1,400 bar) at 4° C. for three times. The split bacteria were centrifuged at 18,000×g for 45 min. The sediment was removed but supernatant was retained and filtered with a 0.45 μm film at 4° C.; the nickel column was balanced with lysis buffer (50 mM PBS pH7.5) by 3 column volumes.
The supernatant was loaded on the nickel column and washed with wash solution (50 mM PBS pH7.5, 50 mM imidazole) by 4 column volume. Finally, protein was eluted with eluant (50 mM PBS pH7.5, 250 mM imidazole); dialyzed for 6 h with dialysis solution (50 mM PBS pH7.5), concentrated, sub-packaged, quickly frozen with liquid nitrogen and stored at −80° C. for backup.
(2) Test Method for IDO Enzyme Inhibitory Activity
Firstly, the compound was diluted by triple gradient. 1 μL of each concentration was added into a 96-well plate; 50 μL of IDO Enzyme solution PBS (pH 7.5; final concentration: 50 mM) was added: 25 μL of substrate 1 (methylene blue, final concentration: […]; catalase, final concentration: 0.2 μg/L; PBS (pH 7.5; final concentration: 50 mM) mixture and 25 μL of substrate 2 (D-Trp, final concentration: 1.5 mM; sodium ascorbate, final concentration: 20 mM; PBS (pH 7.5), final concentration 50 mM) mixture were added for starting the reaction. Finally, OOD321 nm reading was carried out for 40 min.

IDO in Hela cells = target: T2, IDO in Hela cells (Homo sapiens, UniProt P14902); test: Test of cellular activity (kynurenine formation in interferon γ stimulated Hela cells); format: cell-based; details: head prints IPS cells, method: Hela cells, 48 h incubation, read at 480 nm
T2 construct: endogenous in cells; host or cells: HeLa cells stimulated with human interferon γ
T2 sequence (P14902 whole entry): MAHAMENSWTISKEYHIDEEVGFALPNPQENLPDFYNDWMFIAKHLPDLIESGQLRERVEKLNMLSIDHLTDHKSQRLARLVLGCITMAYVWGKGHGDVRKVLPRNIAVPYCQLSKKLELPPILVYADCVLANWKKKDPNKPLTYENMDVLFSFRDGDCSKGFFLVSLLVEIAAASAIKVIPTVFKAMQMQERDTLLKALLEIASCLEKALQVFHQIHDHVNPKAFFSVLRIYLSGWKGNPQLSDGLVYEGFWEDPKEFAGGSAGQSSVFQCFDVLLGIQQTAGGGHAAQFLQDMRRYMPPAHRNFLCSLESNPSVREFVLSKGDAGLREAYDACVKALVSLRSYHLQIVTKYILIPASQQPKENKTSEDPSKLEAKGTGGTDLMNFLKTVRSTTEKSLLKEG
Method: (3) Test Method of Cellular Activity
Hela cells (80 μL) was inoculated on a 96-well plate (5×10^3 for each well) to grow overnight. After the compound was diluted the next day, 1 μL of diluent and 100 μL of culture medium which contains human interferon γ (final concentration: 50 ng/m) were added into the 96-well plate to make the final volume reach […]. After incubating for 48 h, 80 μL of supernate was transferred from each well to a new […]. 10 μL 6.1N trichloroacetic acid was added into each well for mixing and incubation at 50° C. for 30 min, and […] N formyl-kynurenin into kynurenine. The reaction mixture was centrifuged at 2,500 rpm for 10 min, 70 μL of supernatant of each well was transferred to a new 96-well plate and mixed with 100 μL of 2% (w/v) dimethylaminobenzaldehyde acetic acid solution. After placing for 5-10 min, measurement was carried out at 480 nm with the SPECTRAmax i13 reader.

T1 sequence (P14902 whole entry): as above

| IC50 (IDO enzyme) [nM] | IC50 (IDO in Hela cells) [nM] | SMILES |
| --- | --- | --- |
| 3660 | > 10 | O=C(Nc1ccc(Cl)cc1)C1CC2(CCC(c3ccnc4ccc(F)cc34)CC2)C1 (single isomer, unassigned) [Example 15A, N-(4-chlorophenyl)-7-(6-fluoroquinolin-4-yl)spiro[3.5]nonane-2-carboxamide] |
| 400 | 2.53 | O=C(Nc1ccc(Cl)cc1)C1CC2(CCC(c3ccnc4ccc(F)cc34)CC2)C1 (single isomer, unassigned) [Example 15B, N-(4-chlorophenyl)-7-(6-fluoroquinolin-4-yl)spiro[3.5]nonane-2-carboxamide] |
